Results on 40 molecules are retold here after patent US11267811B2, “Small molecule inhibitors of galectin-3” (BRISTOL-MYERS SQUIBB COMPANY, priority 2017, dated 2022).

The structures appear in SMILES notation.

In one experiment the target is His-tagged recombinant human Gal-3 (hGal-3) (Homo sapiens (Human), UniProt P17931). Put plainly: Gal-3 HTRF assay (His-tagged hGal-3 binding to B-ASF).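 Further: compounds preincubated 30 min with hGal-3, then 1 h with B-ASF, detection via terbium anti-His antibody and streptavidin d2. Control with B-ASF counts as full signal, omitting B-ASF as background.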 The following applies: HTRF, hGal-3 15 nM, B-ASF 15 nM; read-out: hGal-3 IC50.
Sequence of His-tagged recombinant human Gal-3 (hGal-3) (P17931 whole entry): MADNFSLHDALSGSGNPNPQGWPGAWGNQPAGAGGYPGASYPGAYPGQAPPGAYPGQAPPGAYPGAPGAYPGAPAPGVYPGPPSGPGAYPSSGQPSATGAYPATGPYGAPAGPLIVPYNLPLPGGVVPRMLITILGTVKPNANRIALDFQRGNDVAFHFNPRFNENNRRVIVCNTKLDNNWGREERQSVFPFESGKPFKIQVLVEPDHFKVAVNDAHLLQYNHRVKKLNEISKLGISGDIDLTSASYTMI
What is called IC50 is the point on the concentration scale where inhibition reaches its midpoint. With `Cc1nc2ccc(-n3nc(C(F)(F)F)nc3[C@@H]3O[C@H](CO)[C@H](O)[C@H](n4cc(-c5cc(F)c(F)c(F)c5)nn4)[C@H]3O)cc2s1` [Example A4, (2R,3R,4R,5R,6S)-2-(Hydroxymethyl)-6-(1-(2-methylbenzo[d]thiazol-6-yl)-3-(trifluoromethyl)-1H-1,2,4-triazol-5-yl)-4-(4-(3,4,5-trifluorophenyl)-1H-1,2,3-triazol-1-yl)tetrahydro-2H-pyran-3,5-diol], the IC50 stood at 58 nM.

As for `O=[N+]([O-])c1cccc(-n2ncnc2[C@@H]2O[C@H](CO)[C@H](O)[C@H](n3cc(-c4cc(F)c(F)c(F)c4)nn3)[C@H]2O)c1` [Example 35], the IC50 turned out to be 700 nM.

With `OC[C@H]1O[C@@H](c2ncnn2[C@@H]2CCCC[C@H]2O)[C@H](O)[C@@H](n2cc(-c3cc(F)c(F)c(F)c3)nn2)[C@H]1O` [Example 171], the IC50 was 2020 nM.

Consider `CSc1cc(Cl)cc(-n2cnnc2[C@@H]2O[C@H](CO)[C@H](O)[C@H](n3cc(-c4cc(F)c(F)c(F)c4)nn3)[C@H]2O)c1` [Example 147], for which the IC50 turned out to be 60 nM.

Regarding `OC[C@H]1O[C@@H](c2ncnn2-c2ccc(Cl)c(Cl)c2)[C@H](O)[C@@H](n2cc(-c3cc(F)c(F)c(F)c3)nn2)[C@H]1O` [Example 21], the concentration for half-maximal inhibition (IC50) is 79 nM.

With `OC[C@H]1O[C@@H](c2nncn2-c2cc(Cl)ccc2Cl)[C@H](O)[C@@H](n2cc(-c3cc(F)c(Cl)c(F)c3)nn2)[C@H]1O` [Example 326, (2S,3R,4R,5R,6R)-4-(4-(4-chloro-3,5-difluorophenyl)-1H-1,2,3-triazol-1-yl)-2-(4-(2,5-dichlorophenyl)-4H-1,2,4-triazol-3-yl)-6-(hydroxymethyl)tetrahydro-2H-py ran-3,5-diol], the half-inhibitory concentration (IC50) was 44 nM.

For `OC[C@H]1O[C@@H](n2nncc2-c2ccccc2)[C@H](O)[C@@H](n2cc(-c3cc(F)c(F)c(F)c3)nn2)[C@H]1O` [Example 3], the IC50 stood at 617 nM.

For the molecule `OC[C@H]1O[C@@H](c2nncn2-c2ccc(Cc3ccncc3)cc2)[C@H](O)[C@@H](n2cc(-c3cc(F)c(F)c(F)c3)nn2)[C@H]1O` [Example 90], the half-inhibitory concentration (IC50) is 520 nM.

In the case of `CC(C)(C)c1cnnn1[C@@H]1O[C@H](CO)[C@H](O)[C@H](n2cc(-c3cc(F)c(F)c(F)c3)nn2)[C@H]1O` [Example 10], the IC50 came to 366 nM.

In the case of `COc1ccc(Cl)cc1-n1nc(C)nc1[C@H]1C[C@@H](n2cc(-c3cc(F)c(F)c(F)c3)nn2)[C@@H](O)[C@@H](CO)O1` [Example 183, (2R,3R,4R,6R)-6-(1-(5-chloro-2-methoxyphenyl)-3-methyl-1H-1,2,4-triazol-5-yl)-2-(hydroxymethyl)-4-(4-(3,4,5-trifluorophenyl)-1H-1,2,3-triazol-1-yl)tetrahydro-2H-pyran-3-ol], the half-inhibitory concentration (IC50) was determined as 160 nM.

On to `Cc1nc([C@@H]2O[C@H](CO)[C@H](O)[C@H](n3cc(-c4ccc(Cl)c(F)c4)nn3)[C@H]2O)n(-c2cccc(Cl)c2)n1` [Example 244, (2S,3R,4R,5R,6R)-4-(4-(4-chloro-3-fluorophenyl)-1H-1,2,3-triazol-1-yl)-2-(1-(3-chlorophenyl)-3-methyl-1H-1,2,4-triazol-5-yl)-6-(hydroxymethyl)tetrahydro-2H-pyran-3,5-diol], for which the 50% inhibitory concentration (IC50) was 80 nM.

With `OC[C@H]1O[C@@H](c2nncn2-c2ccc3cn[nH]c3c2)[C@H](O)[C@@H](n2cc(-c3cc(F)c(F)c(F)c3)nn2)[C@H]1O` [Example 164], the IC50 was determined as 630 nM.

For the molecule `CNC(=O)c1nnc([C@@H]2O[C@H](CO)[C@H](O)[C@H](n3cc(-c4cccc(F)c4)nn3)[C@H]2O)o1` [Example 295, 5-((2R,3R,4S,5R,6R)-4-(4-(3-fluorophenyl)-1H-1,2,3-triazol-1-yl)-3,5-dihydroxy-6-(hydroxymethyl)tetrahydro-2H-pyran-2-yl)-N-methyl-1,3,4-oxadiazole-2-carboxamide], the half-inhibitory concentration (IC50) came out at 14400 nM.

As for `Cc1nc([C@@H]2O[C@H](CO)[C@H](O)[C@H](n3cc(-c4cccc(F)c4)nn3)[C@H]2O)oc1C(=O)O` [Example 301, 2-((2R,3R,4S,5R,6R)-4-(4-(3-fluorophenyl)-1H-1,2,3-triazol-1-yl)-3,5-dihydroxy-6-(hydroxymethyl)tetrahydro-2H-pyran-2-yl)-4-methyloxazole-5-carboxylic acid], the IC50 turned out to be 6350 nM.

Take `CC(C)Oc1ccc(-n2cnnc2[C@@H]2O[C@H](CO)[C@H](O)[C@H](n3cc(-c4cc(F)c(F)c(F)c4)nn3)[C@H]2O)cc1` [Example 103]: the half-inhibitory concentration (IC50) was found to be 700 nM.

For the molecule `Cc1nc2ccc(-n3cnnc3[C@@H]3O[C@H](CO)[C@H](O)[C@H](n4cc(-c5cc(F)c(F)c(F)c5)nn4)[C@H]3O)cc2n1C` [Example 169], the 50% inhibitory concentration (IC50) amounted to 280 nM.

With `Cc1nc2ccc(-n3ncnc3[C@@H]3O[C@H](CO)[C@H](O)[C@H](n4cc(C(=O)NC5CC5)nn4)[C@H]3O)cc2s1` [Example 193, N-cyclopropyl-1-((2R,3R,4R,5R,6S)-3,5-dihydroxy-2-(hydroxymethyl)-6-(1-(2-methylbenzo[d]thiazol-6-yl)-1H-1,2,4-triazol-5-yl)tetrahydro-2H-pyran-4-yl)-1H-1,2,3-triazole-4-carboxamide], the half-maximal inhibitory concentration (IC50) came to 180 nM.

With `Cc1cccc(-n2ncnc2[C@@H]2O[C@H](CO)[C@H](O)[C@H](n3cc(-c4cc(F)c(F)c(F)c4)nn3)[C@H]2O)c1` [Example 26], the IC50 is 230 nM.

Turning to `OC[C@H]1O[C@@H](c2oncc2-c2ccc(Cl)c(Cl)c2)[C@H](O)[C@@H](n2cc(-c3cc(F)c(F)c(F)c3)nn2)[C@H]1O` [Example 288, (2R,3R,4S,5R,6R)-2-(4-(3,4-dichlorophenyl)isoxazol-5-yl)-6-(hydroxymethyl)-4-(4-(3,4,5-trifluorophenyl)-1H-1,2,3-triazol-1-yl)tetrahydro-2H-pyran-3,5-diol], the IC50 worked out at 4000 nM.

As for `Cc1cccc(-n2cnnc2[C@@H]2O[C@H](CO)[C@H](O)[C@H](n3cc(-c4cc(F)c(F)c(F)c4)nn3)[C@H]2O)c1` [Example 155], the IC50 worked out at 150 nM.

In the case of `OC[C@H]1O[C@@H](c2ncnn2-c2cc(Cl)ccc2F)C[C@@H](n2cc(-c3cc(F)c(F)c(F)c3)nn2)[C@H]1O` [Example 179], the IC50 was determined as 250 nM.

On to `O=C(O)c1ccccc1-n1ncnc1[C@@H]1O[C@H](CO)[C@H](O)[C@H](n2cc(-c3cc(F)c(F)c(F)c3)nn2)[C@H]1O` [Example 33], for which the IC50 was 790 nM.

Consider `Cc1nc2ccc(-n3ncnc3[C@@H]3O[C@H](CO)[C@H](O)[C@H](n4cc(C(N)=O)nn4)[C@H]3O)cc2s1` [Example 194], for which the IC50 is 4090 nM.

As to `Cc1nnc(NS(=O)(=O)c2ccc(-n3cnnc3[C@@H]3O[C@H](CO)[C@H](O)[C@H](n4cc(-c5cc(F)c(F)c(F)c5)nn4)[C@H]3O)cc2)s1` [Example 110], the IC50 stood at 1550 nM.

Consider `CN(C)c1ccc(-n2cnnc2[C@@H]2O[C@H](CO)[C@H](O)[C@H](n3cc(-c4cc(F)c(F)c(F)c4)nn3)[C@H]2O)cc1` [Example 91], for which the IC50 was determined as 690 nM.

Consider `Cn1ncc(-c2cccc(Cl)c2)c1[C@@H]1O[C@H](CO)[C@H](O)[C@H](n2cc(-c3cc(F)c(F)c(F)c3)nn2)[C@H]1O` [Example 287, (2S,3R,4R,5R,6R)-2-(4-(3-chlorophenyl)-1-methyl-1H-pyrazol-5-yl)-6-(hydroxymethyl)-4-(4-(3,4,5-trifluorophenyl)-1H-1,2,3-triazol-1-yl)tetrahydro-2H-pyran-3,5-diol], for which the concentration for half-maximal inhibition (IC50) was determined as 10000 nM.

The experiment is the same for the next values; noted with them: read-out: hGal3 IC50.
On to `COc1cc(-c2cn([C@H]3[C@@H](O)[C@@H](CO)O[C@@H](c4ncnn4-c4ccc5nc(C)sc5c4)[C@@H]3O)nn2)cc(F)c1F` [Example 232], for which the IC50 is 40 nM.

As for `Cc1nc([C@@H]2O[C@H](CO)[C@H](O)[C@H](n3cc(-c4ccc(Cl)c(F)c4)nn3)[C@H]2O)n(-c2ccc3ncccc3c2)n1` [Example 253], the IC50 turned out to be 80 nM.

As to `OC[C@H]1O[C@@H](c2nncn2-c2cc(Cl)ccc2C(F)(F)F)[C@H](O)[C@@H](n2cc(-c3ccc(Cl)c(F)c3)nn2)[C@H]1O` [Example 309], the 50% inhibitory concentration (IC50) turned out to be 20 nM.

For the molecule `Cc1nc2ccc(-n3ncnc3[C@@H]3O[C@H](CO)[C@H](O)[C@H](n4cc(-c5cc(F)c(Br)c(F)c5)nn4)[C@H]3O)cc2s1` [Example 226], the IC50 worked out at 70 nM.

For `Cc1nc([C@H]2C[C@@H](n3cc(-c4cc(F)c(Cl)c(F)c4)nn3)[C@@H](O)[C@@H](CO)O2)n(-c2cc(Cl)ccc2C)n1` [Example 263], the IC50 amounted to 120 nM.

The experiment is the same for the next values; noted with them: read-out: hGal IC50.
Regarding `Cc1nc([C@@H]2O[C@H](CO)[C@H](O)[C@H](n3cc(-c4cc(F)c(Cl)c(F)c4)nn3)[C@H]2O)n(-c2cc(Cl)ccc2C(C)(C)C)n1` [Example A42], the concentration for half-maximal inhibition (IC50) stood at 11 nM.

In the case of `OC[C@H]1O[C@@H](c2ncnn2-c2cc(Cl)ccc2C(F)(F)F)[C@H](O)[C@@H](n2cc(-c3cc(F)c(F)c(F)c3)nn2)[C@H]1O` [Example A7], the IC50 was 27 nM.

As to `Cc1nc([C@@H]2O[C@H](CO)[C@H](O)[C@H](n3cc(-c4ccc5scnc5c4)nn3)[C@H]2O)n(-c2cc(Cl)ccc2C(F)(F)F)n1` [Example A65], the IC50 came out at 87 nM.

Regarding `Cc1nc([C@@H]2O[C@H](CO)[C@H](O)[C@H](n3cc(-c4cc(F)c(Cl)c(Cl)c4)nn3)[C@H]2O)n(-c2cc(Cl)ccc2Cl)n1` [Example A54], the IC50 was 48 nM.

On to `Cc1nc([C@@H]2O[C@H](CO)[C@H](O)[C@H](n3cc(-c4cc(F)c(Cl)c(F)c4)nn3)[C@H]2O)n(-c2cc(Cl)ccc2Br)n1` [Example A13], for which the IC50 was 22 nM.

In the case of `Cc1nc([C@@H]2O[C@H](CO)[C@H](O)[C@H](n3cc(-c4ccc(Cl)c(F)c4F)nn3)[C@H]2O)n(-c2cc(Cl)ccc2Br)n1` [Example A73], the IC50 came out at 10 nM.

For the molecule `Cc1nc([C@@H]2O[C@H](CO)[C@H](O)[C@H](n3cc(-c4ccc(Cl)c(F)c4)nn3)[C@H]2O)n(-c2cc(Cl)ccc2C2CC2)n1` [Example A41], the half-inhibitory concentration (IC50) was 59 nM.

Consider `Cc1nc([C@@H]2O[C@H](CO)[C@H](O)[C@H](n3cc(-c4cc(F)c(Cl)c(F)c4)nn3)[C@H]2O)n(-c2cc(Cl)c(Cl)cc2Cl)n1` [Example A53], for which the IC50 came out at 58 nM.

With `Cc1nc([C@@H]2O[C@H](CO)[C@H](O)[C@H](n3cc(-c4ccc(Br)c(F)c4)nn3)[C@H]2O)n(-c2cc(Cl)cc3cccnc23)n1` [Example A12], the IC50 stood at 46 nM.
